Test results as given in patent US12605358B2, “Composition for preventing or treating nervous system diseases comprising compound that inhibits mTOR signaling pathway as active ingredient” (ALIAD BIOPHARMA, priority 2021, dated 2026).

Key:
[1] = biological target: T1, mTORC2 (Homo sapiens, UniProt P42345); test: mTORC2 inhibition, immunoblot of AKT Ser473 phosphorylation in HeLa cells; format: cell-based; conditions: at 40 µM, FIG. 2A
T1 construct: endogenous in cells; host or cells: HeLa
Description: HeLa cells were cultured in DMEM (Dulbesco's Modified Eagles Media) containing 10% FBS, penicillin (100 units/ml), and streptomycin (100 μg/ml) at 37° C. in a 5% CO2 incubator. Culture was started by seeding 4×10^5 cells in a 100 mm culture dish, and subcultured every 3 days.
Immunoblot analysis was performed by the following method. SDS-PAGE-developed proteins were electroblotted and transferred and a PVDF membrane was blocked by shaking for 1 hour in a TBS-T buffer (20 mM Tris, 137 mM NaCl, 0.1% Tween 20) containing 5% skim milk. The membrane was repeatedly washed with a TBS-T buffer three times for 5 minutes, and reacted with a first antibody diluted in a TBS-T buffer containing 5% skim milk or 5% BSA overnight at 4° C. Thereafter, the membrane was repeatedly washed with a TBS-T buffer three times for 5 minutes, and reacted with a second antibody diluted in a TBS-T buffer containing 5% skim milk for 30 minutes at room temperature. The membrane was repeatedly washed with a TBS-T buffer containing 5% skim milk five times for 5 minutes, and then protein bands bound to the second antibody were detected by a chemiluminescence method. […]

[2] = tested on: 5xFAD transgenic mice; test: NFT removal, AT8/MAP2 staining of brain slices; format: in vivo
Description: 5xFAD animals were administered with HN-1703 at three doses for 14 days to male heterozygotes aged 6 months (all born within 3 days). The behaviors of mice were measured in a dark cycle in which the mice were active while alternating light and dark in a 12-hour cycle in a breeding room chamber, and the mice were freely accessible to food and water and bred in compliance with experimental animal ethical guidelines of Kyung Hee University. In each group, the HN-1703 was intraperitoneally injected at the same time once a day in a volume of 100 μl to 12 mice in a normal group (wild type littermate), 9 5xFAD mice in a vehicle (DMSO administration), 8 5xFAD mice in a 5 mg/kg administered group, 9 5xFAD mice in a 10 mg/kg administered group, and 9 5xFAD mice in a 20 mg/kg administered group. […] In a behavioral measurement room, humidity (40 to 60%) and temperature (22 to 26° C.) were maintained, and reflected light was maintained to avoid sound and light effects. Behavioral measures were measured in Y-maze, Morris Water Maze, and Passive Avoidance test for 18 days in sequence.
A brain slice immunostaining method was modified and used as described in Heo H et al. (J Ethnopharmacol, 2009). Mice were transcardially perfused with 4% PFA. After being immersed and fixed in 4% PFA for 4 hours, the brain tissue was unfrozen in 30% sucrose, frozen in an optimal cutting temperature (OCT) mixture, and stored at −80° C. Brain tissue slices were sectioned in a coronal direction at a thickness of 35 μm. The brain tissue slices were immersed in a storage solution (30% glycerol, 30% ethylene glycol, PBS) and stored at 4° C. The stored brain slices were permeabilized in 0.5% Triton X-100 for 20 minutes and shaken in 2 N HCl for 30 minutes at 37° C. Then, the brain slices were blocked in a free-floating state for 2 hours in 15% standard serum, 3% bovine serum albumin (BSA, bio-WORLD, Dublin, OH, USA) and 0.1% Triton X-100. The slices were shaken with a first antibody for 16 hours at 4° C. […]

In the case of `COc1cc(OC)c2c(=O)c3cc4c(cc3oc2c1)OCO4` [HN-1703, 7,9-dimethoxy-10H-[1,3]dioxolo[4,5-b]xanthen-10-one], the “inhibition of mTORC2 activity (AKT Ser473 phosphorylation) compared to the control group” value [1] is reported as 55%, the “decrease of NFTs compared to the 5xFAD-DMSO group” value ([2]; 20 mg/kg, dentate gyrus, FIG. 9) is reported as at least 70% and the “NFT (AT8 staining)” value ([2]; 5 to 20 mg/kg, all three brain regions examined, FIG. 9) is reported as “decreased in a dose-dependent manner”. For the same molecule, the “number of neurons stained with NFT (AT8+/MAP2+)” value ([2]; dentate gyrus, FIG. 10) was “decreased in a dose-dependent manner”.
